Patent US11160796B2, “Anti-androgens for the treatment of non-metastatic castration-resistant prostate cancer” (priority 2017, dated 2021)

Columns and labels:
[1] = system: castration-resistant prostate cancer (CRPC); test: Phase II clinical trial of apalutamide 240 mg daily in CRPC; format: in vivo, human; conditions: for 12-week PSA declines of >50% or more from baseline (% of patients): preliminary
Source text: The primary objective was to assess antitumor activity and PSA kinetics as defined by the Prostate Cancer Clinical Trials Working Group (PCWG2) criteria. […] The median time to PSA progression was not reached for the TN cohort during the preliminary 12-week period, and was 16 weeks in the PA cohort.
The median time to PSA progression was not reached in this observed time period.

[2] = system: castration-resistant LNCaP/AR-Luc xenograft model; test: Murine tumor (xenograft) models of CRPC; format: in vivo; conditions: for tumor cell proliferation and apoptosis in vivo: CRPC / mouse xenograft models of prostate cancer
[3] = Single-dose and repeat-dose toxicology studies in male rats
Source text: Single-dose and repeat-dose toxicology studies up to 13 weeks of dosing have been conducted in male Sprague Dawley (SD) rats and male Beagle dogs (repeat-dose studies only).

[4] = Fertility study in male rats; format: in vivo
[5] = Phase III study (SPARTAN, Study 1): safety; format: in vivo, human
Source text: SPARTAN, a randomized (2:1), double-blind, placebo-controlled, multi-center clinical study, enrolled patients who had non-metastatic, castration-resistant prostate cancer (NM-CRPC).

[6] = molecular target: T1, CYP2C8 (Homo sapiens, UniProt P10632); test: Contribution of CYP2C8 in the metabolism of apalutamide; format: in vivo; conditions: estimated
T1 construct: from tissue; host or cells: human subjects, in vivo (clinical pharmacology)
T1 sequence (P10632 1-490): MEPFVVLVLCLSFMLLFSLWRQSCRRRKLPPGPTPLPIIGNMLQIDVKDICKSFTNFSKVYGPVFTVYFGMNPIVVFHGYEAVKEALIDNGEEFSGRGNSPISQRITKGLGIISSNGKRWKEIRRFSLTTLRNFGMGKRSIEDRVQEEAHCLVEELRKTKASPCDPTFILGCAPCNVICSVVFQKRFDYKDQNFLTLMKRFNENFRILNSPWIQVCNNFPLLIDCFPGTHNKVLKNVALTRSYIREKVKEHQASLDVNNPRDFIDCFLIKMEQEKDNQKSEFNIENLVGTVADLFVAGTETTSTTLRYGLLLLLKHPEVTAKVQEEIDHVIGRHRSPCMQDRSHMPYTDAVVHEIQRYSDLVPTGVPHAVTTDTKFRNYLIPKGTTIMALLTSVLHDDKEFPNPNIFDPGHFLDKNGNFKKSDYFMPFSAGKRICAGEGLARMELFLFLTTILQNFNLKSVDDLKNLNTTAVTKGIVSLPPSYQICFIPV

[7] = Drug-drug interaction studies: effect of other medications on apalutamide; format: in vivo, human
[8] = system: BCRP/OATP1B1; test: Drug-drug interaction study, cocktail approach: rosuvastatin; set-up: species or system human; conditions: in vivo
[9] = In vitro chromosome aberration test; format: cell-based
[10] = In vivo rat Comet assay
[11] = system: BCRP, OATP1B1, and OATP1B3; conditions: not told
[12] = Plasma protein binding; conditions: plasma
[13] = system: CYP2C9, CYP2C19, and CYP3A4; test: In vitro CYP inhibition: CYP2C9, CYP2C19, CYP3A4
[14] = Clinical pharmacokinetics (population PK analysis); conditions: for dose dependence of exposure (Cmax and AUC): repeat once-daily dosing, 30 to 480 mg
[15] = Single oral administration of 14C-labeled apalutamide 240 mg (metabolite profile, excretion)

CNC(=O)c1ccc(N2C(=S)N(c3cnc(C#N)c(C(F)(F)F)c3)C(=O)C23CCC3)cc1F [apalutamide, 4-[7-(6-cyano-5-trifluoromethylpyridin-3-yl)-8-oxo-6-thioxo-5,7-diazaspiro[3.4]oct-5-yl]-2-fluoro-N-methylbenzamide]
median time to PSA progression ([1]; PA cohort): 16 weeks
12-week PSA declines of >50% or more from baseline (% of patients) ([1]; PA cohort (progressed after abiraterone acetate plus prednisone), 240 mg oral daily): 29%
12-week PSA declines of >50% or more from baseline (% of patients) ([1]; TN cohort (treatment-naive metastatic CRPC), 240 mg oral daily): 88%
median time to PSA progression ([1]; TN cohort, preliminary 12-week period): not reached
objective response rate (by RECIST) ([1]; TN patients with measurable disease at baseline): 63%
patients with >50% decline in PSA as compared to baseline ([1]; non-metastatic CRPC, 240 mg oral daily, 12 weeks): 91%
patients with >50% decline in PSA ([1]; non-metastatic CRPC, 24 weeks): 91%
patients with >90% decline in PSA ([1]; non-metastatic CRPC, 24 weeks): 55%
median time to PSA progression ([1]; non-metastatic CRPC, observed time period): not reached
tumor cell proliferation and apoptosis in vivo [2]: reduce proliferation of CRPC cells as well as increase apoptosis and necrosis
tumor cell proliferation and apoptosis in vivo ([2]; listed as Apalutamide): decreased tumor cell proliferation and increased apoptosis leading to decreased tumor volume
tumor growth inhibition and tumor regression ([2]; murine tumor models of CRPC): dose-dependent tumor growth inhibition and tumor regression that were superior to bicalutamide
well tolerated dose ([3]; 13-weeks study, once daily oral gavage, male SD rats): up to 100 mg/kg/day
dose with reproductive system findings (atrophy, aspermia/hypospermia, degeneration, hyperplasia or hypertrophy) ([3]; male, Sprague Dawley, rat, in vivo): > 25 mg/kg/day
NOAEL at 13 weeks ([3]; male, Sprague-Dawley, rat, in vivo): 100 mg/kg/day
increase in cholesterol from controls ([3]; rat, in vivo, 150 mg/kg/day): greater than 200%
live fetuses (pre- and/or post-implantation loss) ([4]; 4 weeks of 150 mg/kg/day): reduced number of live fetuses
dose with decreased sperm concentration and motility, copulation and fertility rates, reduced secondary sex gland and epididymis weights ([4]; 4 weeks of dosing, male rats): > 25 mg/kg/day
reversibility of effects on male rats ([4]; after 8 weeks from the last administration): reversible
Arthralgia ([5]; All Grades): 15.9%
Fall ([5]; All Grades): 15.6%
Fracture (grouped term) ([5]; All Grades): 11.7%
Hypercholesterolemia ([5]; All Grades): 6.1%
Hypertriglyceridemia ([5]; All Grades): 3.5%
Hypothyroidism (grouped term) ([5]; All Grades): 8.1%
Pruritus ([5]; All Grades): 6.2%
Seizure ([5]; All Grades): 0.2%
Skin rash (grouped term) ([5]; All Grades): 24%
Weight decreased ([5]; All Grades): 16.1%
Fatigue ([5]; All Grades, N = 803): 30.4%
Skin rash (grouped term) ([5]; All Grades, listed as Apalutamide): 23.8%
Arthralgia ([5]; Grade 3-4): 0%
Fall ([5]; Grade 3-4): 1.7%
Fatigue ([5]; Grade 3-4): 0.9%
Fracture (grouped term) ([5]; Grade 3-4): 2.7%
Hypercholesterolemia ([5]; Grade 3-4): 0%
Hypertriglyceridemia ([5]; Grade 3-4): 0.6%
Hypothyroidism (grouped term) ([5]; Grade 3-4): 0%
Pruritus ([5]; Grade 3-4): 0.2%
Seizure ([5]; Grade 3-4): 0%
Skin rash (grouped term) ([5]; Grade 3-4): 5.2%
Weight decreased ([5]; Grade 3-4): 1.1%
onset of skin rash, median ([5]; days of treatment): 82 days
Grade 3 skin rashes (covering >30% body surface area) ([5]; in vivo): 5.2%
Hypothyroidism in patients already receiving thyroid replacement therapy ([5]; in vivo): 28%
Hypothyroidism in patients not receiving thyroid replacement therapy ([5]; in vivo): 5.7%
discontinuations due to adverse events ([5]; in vivo): 11%
dose interruption among patients with skin rash ([5]; in vivo): 28%
dose reduction among patients with skin rash ([5]; in vivo): 12%
dose reduction, reason "other" ([5]; in vivo): 9.7%
dose reduction, reason adverse event ([5]; in vivo): 11%
patients whose skin rash resolved ([5]; in vivo): 81%
recurrence of skin rash in patients who were re-challenged ([5]; in vivo): approximately half
subjects receiving no dose modifications ([5]; in vivo): 79%
subjects with 2 dose interruptions ([5]; in vivo): 6.6%
subjects with dose interruptions due to TEAEs ([5]; in vivo): 34%
subjects with dose reductions ([5]; in vivo): 21%
subjects with one dose interruption ([5]; in vivo): 22%
subjects with one dose reduction ([5]; in vivo): 8.2%
subjects with two dose reductions ([5]; in vivo): 13%
time to resolution of rash from onset, median ([5]; in vivo): 60 days
treatment discontinuation among patients who experienced skin rash ([5]; in vivo): 9%
contribution of CYP2C8 in the metabolism ([6]; at steady-state): 40%
contribution of CYP2C8 in the metabolism ([6]; following single dose): 58%
increase in AUC of apalutamide ([7]; 240 mg single dose with gemfibrozil): 68%
decrease in Cmax of apalutamide ([7]; 240 mg single dose with gemfibrozil (strong CYP2C8 inhibitor)): 21%
AUC of apalutamide ([7]; 240 mg single dose with itraconazole): similar
decrease in Cmax of apalutamide ([7]; 240 mg single dose with itraconazole (strong CYP3A4 inhibitor)): 22%
BCRP/OATP1B1 inducer clinically [8]: weak and weak inducer
impact on Cmax of rosuvastatin [8]: no impact
genotoxicity, in vitro chromosome aberration [9]: not genotoxic
genotoxicity, in vivo rat Comet assay [10]: not genotoxic
substrate for BCRP, OATP1B1, and OATP1B3 [11]: not BCRP, OATP1B1, and OATP1B3
fraction unbound [12]: 0.04
inhibition of CYP2C9, CYP2C19, and CYP3A4 [13]: weak inhibitors
time to steady state ([14]; 240 mg once daily): 4 weeks
CL/F ([14]; after single dosing): 1.3 L/h
CL/F ([14]; at steady-state after once-daily dosing): 2.0 L/h
changes in Cmax and AUC with food ([14]; high-fat meal vs fasting, healthy subjects): no clinically relevant changes
Tmax ([14]; human, plasma, po): 2 h
bioavailability ([14]; human, plasma, po): ~100%
differences in pharmacokinetics in specific populations ([14]; mild or moderate renal impairment, mild or moderate hepatic impairment, age 18 to 94 years, race): No clinically significant differences
dose dependence of exposure (Cmax and AUC) [14]: dose-proportional
dose dependence of exposure (Cmax and AUC) ([14]; listed as Apalutamide): increased proportionally
share of the total 14C-AUC in plasma ([15]; single oral 240 mg): 45%
% of dose in feces as this compound ([15]; up to 70 days): 1.5%
% of dose in urine as this compound ([15]; up to 70 days): 1.2%
radioactivity recovered in feces ([15]; up to 70 days): 24%
radioactivity recovered in urine ([15]; up to 70 days): 65%
radioactivity recovered ([15]; up to 70 days post-dose): 89%
